Target: T1, APOL1 (Homo sapiens, UniProt O14791)
T1 sequence (O14791 1-398 S342G/I384M): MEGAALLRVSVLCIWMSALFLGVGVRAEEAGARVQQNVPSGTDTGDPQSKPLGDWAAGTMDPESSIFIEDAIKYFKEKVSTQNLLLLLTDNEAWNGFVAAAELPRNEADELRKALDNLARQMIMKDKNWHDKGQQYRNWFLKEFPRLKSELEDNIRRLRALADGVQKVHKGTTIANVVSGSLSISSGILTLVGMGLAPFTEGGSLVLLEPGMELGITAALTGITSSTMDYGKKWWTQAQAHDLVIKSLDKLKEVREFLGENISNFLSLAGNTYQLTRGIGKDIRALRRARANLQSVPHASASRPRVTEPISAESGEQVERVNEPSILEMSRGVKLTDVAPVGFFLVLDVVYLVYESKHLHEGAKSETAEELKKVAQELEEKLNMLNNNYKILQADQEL
Test: MultiTox-Fluor Multiplex Cytotoxicity Assay in tet-inducible APOL1 T-REx-HEK293 cells (cell rescue, ratio of dead to live cells)
Assay type: cell-based
Settings: tet-inducible transgenic APOL1 T-REx-HEK293 cell lines, 50 ng/mL tet, 24 hours; read-out: IP50 (i.e., IC50 for cell proliferation)
Procedure, shortened: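 T-REx-HEK293 cells with tet-inducible APOL1 were treated with compound (10 μM top, 10-point 3-fold dilution, duplicate) plus 50 ng/mL tetracycline for 24 h at 37° C, in DMEM with 2% tet-free FBS. MultiTox-Fluor protease signals gave a dead/live ratio, normalized to no tet (100% viability) and tet alone (0%).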

SMILES: CNC(=O)[C@@H](O)Cn1cc(CN2CC[C@]3(C[C@@H]2C)OC[C@@H](O)c2cc(C(F)(F)F)sc23)cn1 [Compound 997]
- IC50: < 100 nM

SMILES: CCc1cc2c(s1)CCO[C@@]21CCN(Cc2cn(Cc3c[nH]nc3C)nn2)[C@@H](C)C1 [Compound 57]
- IC50: < 100 nM

SMILES: CCOCCC(O)Cn1cc(CN2CC[C@]3(C[C@@H]2C)OCCc2c3sc(C(F)(F)F)c2CO)cn1 (stereo partly drawn) [Compound 957]
- IC50: < 100 nM

SMILES: CCc1cc2c(s1)CCO[C@@]21CCN(C[C@H]2C[C@@H](NS(=O)(=O)CCCO)C2)[C@@H](C)C1 [Compound 417]
- IC50: 500 to 1000 nM

SMILES: C[C@H]1C[C@@]2(CCN1Cc1ccc(F)cn1)OCCc1cc(Cl)sc12 [Compound 665]
- IC50: 100 to 500 nM

SMILES: CCc1cc2c(s1)CCO[C@@]21CCN(C[C@H]2C[C@@H](NC(=O)C3CC3c3ccc(F)cc3)C2)[C@@H](C)C1 (stereo partly drawn) [Compound 323]
- IC50: < 100 nM

SMILES: CCc1cc2c(s1)CCO[C@@]21CCN(CC2CN(S(=O)(=O)CC)C2)[C@@H](C)C1 [Compound 491, (2′S,4R)-2-ethyl-1′-[(1-ethylsulfonylazetidin-3-yl)methyl]-2′-methyl-spiro[6,7-dihydrothieno[3,2-c]pyran-4,4′-piperidine]]
- IC50: 100 to 500 nM

SMILES: C[C@H]1C[C@@]2(CCN1Cc1cnn(CCS(C)(=O)=O)c1)OCC(O)c1cc(C(F)(F)C(F)F)sc12 (single isomer, unassigned) [Compound 1014, (2′S, 7R)-2′-methyl-1′-[[1-(2-methylsulfonylethyl)pyrazol-4-yl]methyl]-2-(1,1,2,2-tetrafluoroethyl)spiro[4,5-dihydrothieno[2,3-c]pyran-7,4′-piperidine]-4-ol]
- IC50: < 100 nM

SMILES: CCc1cc2c(s1)CCOC21CCN(Cc2ccc(C(=O)NCCC(=O)N3CCCC3)nc2)CC1 [Compound 1049]
- IC50: < 100 nM

SMILES: C[C@H]1C[C@@]2(CCN1Cc1ccc(NS(C)(=O)=O)cc1)OCCc1cc(Cl)sc12 [Compound 638]
- IC50: < 100 nM

SMILES: C[C@H]1C[C@@]2(CCN1Cc1cccc(F)c1)OCCc1cc(Cl)sc12 [Compound 688]
- IC50: 500 to 1000 nM

SMILES: CCCC(O)Cn1cc(CN2CC[C@]3(C[C@@H]2C)OCCc2sc(CC)cc23)nn1 (stereo partly drawn) [Compound 85]
- IC50: < 100 nM

SMILES: CCN1CC[C@]2(C[C@@H]1C)OCCc1cc(CC(F)F)sc12 [Compound 572]
- IC50: 100 to 500 nM

SMILES: CCc1cc2c(s1)CCO[C@@]21CCN(C[C@H]2C[C@@H](NC(=O)c3cccc4c3OCCC4)C2)[C@@H](C)C1 [Compound 311]
- IC50: 100 to 500 nM

SMILES: C[C@H]1C[C@@]2(CCN1Cc1cnn(C[C@H](O)C(C)(C)O)c1)OC[C@@H](O)c1cc(C(F)(F)F)sc12 [Compound 889, (2S)-1-[4-[[(2′S,4S,7R)-4-hydroxy-2′-methyl-2-(trifluoromethyl)spiro[4,5-dihydrothieno[2,3-c]pyran-7,4′-piperidine]-1′-yl]methyl]pyrazol-1-yl]-3-methyl-butane-2,3-diol]
- IC50: < 100 nM

SMILES: C[C@H]1C[C@@]2(CCN1C[C@H](O)CO)OCCc1cc(CC(F)F)sc12 [Compound 607]
- IC50: 100 to 500 nM

SMILES: Cc1cc2c(s1)CCO[C@@]21CCN(C2COCC2O)[C@@H](C)C1 (single isomer, unassigned) [Compound 500]
- IC50: < 100 nM

SMILES: Cc1cnc(Cn2cc(CN3CC[C@]4(C[C@@H]3C)OCCc3c4sc(C(F)(F)F)c3CO)cn2)cn1 [Compound 912]
- IC50: < 100 nM

SMILES: Cn1cc(CN2CCC3(CC2)OCC2(CC2)c2sc(Cl)cc23)cn1 [Compound 1179, 2′-chloro-1″-[(1-methyl-1H-pyrazol-4-yl)methyl]-6′H-dispiro[cyclopropane-1,7′-thieno[3,2-c]pyran-4′,4″-piperidine]]
- IC50: < 100 nM

SMILES: CCc1cc2c(s1)CCOC21CCN(Cc2cn(CC(CC)CO)nn2)C(C)C1 (stereo not drawn) [Compound 115]
- IC50: < 100 nM

SMILES: CCc1cc2c(s1)CCO[C@@]21CCN(Cc2cn(C3CC(=O)N(CCOC)C3)nn2)[C@@H](C)C1 (stereo partly drawn) [Compound 180]
- IC50: < 100 nM

SMILES: C[C@H]1C[C@@]2(CCN1Cc1cc(F)c[nH]c1=O)OCCc1cc(CC(F)F)sc12 [Compound 588]
- IC50: 500 to 1000 nM

SMILES: C[C@H]1C[C@@]2(CCN1Cc1cnn(C[C@@H](O)C(C)(C)O)c1)OCCc1c2sc(C(F)(F)F)c1CO [Compound 888, (2R)-1-[4-[[(2′S, 7R)-3-(hydroxymethyl)-2′-methyl-2-(trifluoromethyl)spiro[4,5-dihydrothieno[2,3-c]pyran-7,4′-piperidine]-1′-yl]methyl]pyrazol-1-yl]-3-methyl-butane-2,3-diol]
- IC50: < 100 nM

SMILES: CCc1cc2c(s1)CCO[C@@]21CCN(Cc2cn(CCS(C)(=O)=O)nn2)[C@H](C)C1 [Compound 9, (2′R,4R)-2-ethyl-2′-methyl-1′-[[1-(2-methylsulfonylethyl)triazol-4-yl]methyl]spiro[6,7-dihydrothieno[3,2-c]pyran-4,4′-piperidine]]
- IC50: 500 to 1000 nM

SMILES: Cc1cc2c(s1)[C@]1(CCN(Cc3cnn(CC(C)(CO)CO)c3)[C@@H](C)C1)OCC2 [Compound 1028, 2-[[4-[[(2′S, 7R)-2,2′-dimethylspiro[4,5-dihydrothieno[2,3-c]pyran-7,4′-piperidine]-1′-yl]methyl]pyrazol-1-yl]methyl]-2-methyl-propane-1,3-diol]
- IC50: < 100 nM

SMILES: CCN(CC)C(=O)Cn1cc(CN2CC[C@]3(C[C@@H]2C)OCCc2c3sc(C(F)(F)F)c2CO)cn1 [Compound 904]
- IC50: < 100 nM

SMILES: CCc1cc2c(s1)CCO[C@@]21CCN(C)[C@@H](C)C1 [Compound 277]
- IC50: 500 to 1000 nM

SMILES: C[C@H]1C[C@@]2(CCN1C[C@@H](O)C(N)=O)OCCc1sc(Cl)cc12 [Compound 509, (2R)-3-[(2′S,4R)-2-chloro-2′-methyl-spiro[6,7-dihydrothieno[3,2-c]pyran-4,4′-piperidine]-1′-yl]-2-hydroxy-propanamide]
- IC50: 100 to 500 nM

SMILES: Cc1cc2c(s1)[C@]1(CCN(Cc3cn[nH]c3)[C@@H](C)C1)OCC2 [Compound 1024, (2′S, 7R)-2,2′-dimethyl-1′-(1H-pyrazol-4-ylmethyl)spiro[4,5-dihydrothieno[2,3-c]pyran-7,4′-piperidine]]
- IC50: < 100 nM

SMILES: C[C@H]1C[C@@]2(CCN1Cc1cnn(CC(O)C3(O)CCOCC3)c1)OC[C@@H](O)c1cc(C(F)(F)F)sc12 (stereo partly drawn) [Compound 978]
- IC50: < 100 nM

SMILES: C[C@H]1C[C@@]2(CCN1Cc1cn(C(C)(C)CO)nn1)OCCc1c2sc(C(F)(F)F)c1CO [Compound 1000, 2-[4-[[(2′S, 7R)-3-(hydroxymethyl)-2′-methyl-2-(trifluoromethyl)spiro[4,5-dihydrothieno[2,3-c]pyran-7,4′-piperidine]-1′-yl]methyl]triazol-1-yl]-2-methyl-propan-1-ol]
- IC50: 500 to 1000 nM

SMILES: C[C@H]1C[C@@]2(CCN1Cc1cccc(F)c1O)OC[C@H](O)c1cc(Cl)sc12 [Compound 801]
- IC50: 500 to 1000 nM

SMILES: CCc1cc2c(s1)CCO[C@@]21CCN(Cc2cn(Cc3cc(C)n[nH]3)nn2)[C@@H](C)C1 [Compound 64]
- IC50: < 100 nM

SMILES: CNC(=O)[C@@H](O)CN1CC[C@]2(C[C@@H]1C)OCCc1cc(C(F)(F)F)sc12 [Compound 869, (2S)-2-hydroxy-N-methyl-3-[(2′S, 7R)-2′-methyl-2-(trifluoromethyl)spiro[4,5-dihydrothieno[2,3-c]pyran-7,4′-piperidine]-1′-yl]propanamide]
- IC50: 500 to 1000 nM

SMILES: CCN1CC[C@]2(C[C@@H]1C)OCC(O)c1cc(Cl)sc12 (stereo in doubt) [Compound 821, (2′S,4S,7R)-2-chloro-1′-ethyl-2′-methyl-spiro[4,5-dihydrothieno[2,3-c]pyran-7,4′-piperidine]-4-ol]
- IC50: 100 to 500 nM

SMILES: CCc1cc2c(s1)CCO[C@@]21CCN(Cc2cn([C@H]3CC[C@@H]3O)nn2)[C@@H](C)C1 [Compound 144]
- IC50: 100 to 500 nM

SMILES: CCc1cc2c(s1)CCO[C@@]21CCN(CC(O)C(F)(F)F)[C@@H](C)C1 (stereo partly drawn) [Compound 243]
- IC50: 100 to 500 nM

SMILES: CCc1cc2c(s1)CCOC21CCN(Cc2cn(CC3(OCCO)CCOC3)nn2)C(C)C1 (stereo not drawn) [Compound 119]
- IC50: < 100 nM

SMILES: Cc1ncc(CN2CC[C@]3(C[C@@H]2C)OC[C@H](O)c2cc(Cl)sc23)cn1 [Compound 793]
- IC50: 100 to 500 nM

SMILES: C[C@H]1C[C@@]2(CCN1Cc1cnn(CC(=O)NC3CC3)c1)OCCc1c2sc(C(F)(F)F)c1CO [Compound 903]
- IC50: < 100 nM

SMILES: CCc1cc2c(s1)CCOC21CCN(Cc2cnn(C(C)=O)c2)CC1 [Compound 1135]
- IC50: 100 to 500 nM

SMILES: CCc1cc2c(s1)CCO[C@@]21CCN(C[C@H]2C[C@@H](NC(=O)CC3CC(F)(F)C3)C2)[C@@H](C)C1 [Compound 338]
- IC50: < 100 nM

SMILES: CCc1cc2c(s1)CCO[C@@]21CCN(Cc2cn(CCS(=O)(=O)NCCO)nn2)[C@@H](C)C1 [Compound 6, 2-[4-[[(2′S,4R)-2-ethyl-2′-methyl-spiro[6,7-dihydrothieno[3,2-c]pyran-4,4′-piperidine]-1′-yl]methyl]triazol-1-yl]-N-(2-hydroxyethyl)ethanesulfonamide]
- IC50: < 100 nM

SMILES: C[C@H]1C[C@@]2(CCN1Cc1cnn(CCS(C)(=O)=O)c1)OCC(O)c1cc(Cl)sc12 (stereo partly drawn) [Compound 767, (2′S,7R)-2-chloro-2′-methyl-1′-[[1-(2-methylsulfonylethyl)pyrazol-4-yl]methyl]spiro[4,5-dihydrothieno[2,3-c]pyran-7,4′-piperidine]-4-ol]
- IC50: < 100 nM

SMILES: C[C@H]1C[C@@]2(CCN1CCO)OCCc1sc(Cl)cc12 [Compound 506]
- IC50: 100 to 500 nM

Source: patent US20250171459A1, “2-METHYL-4',5'-DIHYDROSPIRO[PIPERIDINE-4,7'-THIENO[2,3-C]PYRAN] DERIVATIVES AS INHIBITORS OF APOL1 AND METHODS OF USING SAME” (Vertex Pharmaceuticals Incorporated, priority 2022, published 2025)
